# Results from patent US20080063628A1, “METHODS TO PROMOTE CELL DIFFERENTIATION” (priority 2006, published 2008).
# Tested on: late passage pancreatic-derived stromal cells
# Assay: Chronic trichostatin A treatment, gene expression by RT-PCR (Example 5)
# Format: cell-based, human
# Procedure: Pancreatic-derived stromal cells were obtained according to the methods described in Example 13. Cells were seeded into a 24-well tissue culture plate at a density of 5000/cm^2 and cultured in DMEM with 10% FBS under standard cell culture conditions until confluent. After the cells reached confluency, sample wells were treated with either 1.25 μM or 2.5 μM trichostatin A diluted in DMSO and medium; control wells received DMSO at an equivalent concentration. At 24 hour intervals over the three day culture period, cultures underwent a complete medium change, and a fresh dilution of trichostatin A or DMSO was added as appropriate. RNA samples were obtained from treated cultures daily after the initial addition of trichostatin A or DMSO. Culture medium was removed, cells were washed with PBS, and RLT lysis buffer with β-mercaptoethanol (Qiagen) was added. RNA was purified using the RNeasy Mini Kit (Qiagen), and RNA quantity and quality was determined using a spectrophotometer. cDNA was made using the iScript cDNA synthesis kit (BioRad).
# Expression levels of Sox17, HNF-3 beta, Pdx-1, insulin, and glucagon were determined by RT-PCR. Samples of 20 ng cDNA were used in each reaction, which was performed on the Applied Biosystems 7500, according to the methods described in Example 15. Data were analyzed using the accompanying software. Human pancreas cDNA was included as a control. Results were normalized against GAPDH expression levels.
# Real-time PCR amplifcation and quantitative analysis. Unless otherwise stated, all reagents were purchased from Applied Biosystems. Real-time PCR reactions were performed using the ABI PRISM™ 7500 Sequence Detection System. TAQMAN™ FAST UNIVERSAL PCR MASTER MIX™ (ABI, CA) was used with 20 ng of reverse transcribed RNA in a total reaction volume of 20 μl. Each cDNA sample was run in duplicate to allow correction of pipetting errors. Primers and FAM-labeled TAQMAN™ probes were used at concentrations of 200 nM. The level of expression for each target gene was normalized using the pre-developed Applied Biosystem's human glyceraldehyde-3-phosphate dehydrogenase (GAPDH) endogenous control kit. Primers and probes were designed using either ABI PRISM PRIMER EXPRESS™ software or a pre-developed ABI gene analysis kit. For each gene, either one of the primers or the probe were designed to be exon-boundary spanning. This eliminated the possibility of the primers/probe binding to any genomic DNA present. The primer and probe sets are listed as follows: Pdx-1 (Hs00426216), Insulin (Hs00355773), glucagon (Hs00174967), and FoxA2 (HNF 3-beta) (Hs00232764). The remaining primers were designed using the PRIMERS program (ABI, CA). After an initial 95° C. incubation for 20 sec, samples were cycled 40 times in two stages: a denaturation step at 95° C. for 3 sec, followed by an annealing/extension step at 60° C. for 30 sec.
# For each primer/probe set, a cycle time value was determined as the cycle number at which the fluorescence intensity of the PCR reaction reached a specific value in the middle of the exponential region of amplification. An increase in expression of a gene corresponded to a decrease in the number of cycles required for the fluorescence intensity to reach this value.
# [1] = 1.25 μM renewed daily, 24 hours
# [2] = 1.25 μM renewed daily, 48 hours
# [3] = 1.25 μM renewed daily, 72 hours
compound,measurement,setting,value
CC(/C=C/C(=O)NO)=C\[C@@H](C)C(=O)c1ccc(N(C)C)cc1 [trichostatin A],HNF-3 beta gene expression,[1],+++ (detectable at less than 35 cycles by RT-PCR with std error less than 0.9)
same,Insulin gene expression,[1],nd (not detectable at >40 cycles by RT-PCR)
same,PDX-1 gene expression,[1],+ (detectable between 35 and 40 cycles by RT-PCR)
same,Sox17 gene expression,[1],+++ (detectable at less than 35 cycles by RT-PCR with std error less than 0.9)
same,glucagon gene expression,[1],+ (detectable between 35 and 40 cycles by RT-PCR)
same,HNF-3b gene expression,[2],++ (detectable at less than 35 cycles by RT-PCR with std error greater than 0.9)
same,Insulin gene expression,[2],nd (not detectable at >40 cycles by RT-PCR)
same,PDX-1 gene expression,[2],+++ (detectable at less than 35 cycles by RT-PCR with std error less than 0.9)
same,Sox17 gene expression,[2],+++ (detectable at less than 35 cycles by RT-PCR with std error less than 0.9)
same,glucagon gene expression,[2],+ (detectable between 35 and 40 cycles by RT-PCR)
same,HNF-3b gene expression,[3],+++ (detectable at less than 35 cycles by RT-PCR with std error less than 0.9)
same,Insulin gene expression,[3],nd (not detectable at >40 cycles by RT-PCR)
same,PDX-1 gene expression,[3],+++ (detectable at less than 35 cycles by RT-PCR with std error less than 0.9)
same,Sox17 gene expression,[3],+++ (detectable at less than 35 cycles by RT-PCR with std error less than 0.9)
same,glucagon gene expression,[3],+ (detectable between 35 and 40 cycles by RT-PCR)
same,HNF-3 beta gene expression,"2.5 μM renewed daily, 24 hours",+ (detectable between 35 and 40 cycles by RT-PCR)
same,Insulin gene expression,"2.5 μM renewed daily, 24 hours",nd (not detectable at >40 cycles by RT-PCR)
same,PDX-1 gene expression,"2.5 μM renewed daily, 24 hours",+++ (detectable at less than 35 cycles by RT-PCR with std error less than 0.9)
same,Sox17 gene expression,"2.5 μM renewed daily, 24 hours",+++ (detectable at less than 35 cycles by RT-PCR with std error less than 0.9)
same,glucagon gene expression,"2.5 μM renewed daily, 24 hours",nd (not detectable at >40 cycles by RT-PCR)
same,HNF-3b gene expression,"2.5 μM renewed daily, 48 hours",+ (detectable between 35 and 40 cycles by RT-PCR)
same,Insulin gene expression,"2.5 μM renewed daily, 48 hours",nd (not detectable at >40 cycles by RT-PCR)
same,PDX-1 gene expression,"2.5 μM renewed daily, 48 hours",+++ (detectable at less than 35 cycles by RT-PCR with std error less than 0.9)
same,Sox17 gene expression,"2.5 μM renewed daily, 48 hours",+++ (detectable at less than 35 cycles by RT-PCR with std error less than 0.9)
same,glucagon gene expression,"2.5 μM renewed daily, 48 hours",+ (detectable between 35 and 40 cycles by RT-PCR)
same,HNF-3b gene expression,"2.5 μM renewed daily, 72 hours",+++ (detectable at less than 35 cycles by RT-PCR with std error less than 0.9)
same,Insulin gene expression,"2.5 μM renewed daily, 72 hours",nd (not detectable at >40 cycles by RT-PCR)
same,PDX-1 gene expression,"2.5 μM renewed daily, 72 hours",+ (detectable between 35 and 40 cycles by RT-PCR)
same,Sox17 gene expression,"2.5 μM renewed daily, 72 hours",+++ (detectable at less than 35 cycles by RT-PCR with std error less than 0.9)
same,glucagon gene expression,"2.5 μM renewed daily, 72 hours",nd (not detectable at >40 cycles by RT-PCR)
